Where two headings read alike, the source gives them in different places.
Key:
Type in all cases: binding
[1] = molecular target: various enzymes (Homo sapiens, UniProt O00141); conditions: compound 1 uM
Protocol: (§1) Ambit profiling was conducted in accordance with the manufacturer's instructions.

[2] = molecular target: various enzymes (Homo sapiens, UniProt P00519, Q252H); conditions: compound 1 uM
Protocol: as §1

[3] = molecular target: various enzymes (Homo sapiens, UniProt P00533, T790M)
Protocol: as §1

[4] = molecular target: various enzymes (Homo sapiens, UniProt P04626); conditions: compound 1 uM
Chain of various enzymes (Homo sapiens, UniProt P04626) (P04626 23-1255): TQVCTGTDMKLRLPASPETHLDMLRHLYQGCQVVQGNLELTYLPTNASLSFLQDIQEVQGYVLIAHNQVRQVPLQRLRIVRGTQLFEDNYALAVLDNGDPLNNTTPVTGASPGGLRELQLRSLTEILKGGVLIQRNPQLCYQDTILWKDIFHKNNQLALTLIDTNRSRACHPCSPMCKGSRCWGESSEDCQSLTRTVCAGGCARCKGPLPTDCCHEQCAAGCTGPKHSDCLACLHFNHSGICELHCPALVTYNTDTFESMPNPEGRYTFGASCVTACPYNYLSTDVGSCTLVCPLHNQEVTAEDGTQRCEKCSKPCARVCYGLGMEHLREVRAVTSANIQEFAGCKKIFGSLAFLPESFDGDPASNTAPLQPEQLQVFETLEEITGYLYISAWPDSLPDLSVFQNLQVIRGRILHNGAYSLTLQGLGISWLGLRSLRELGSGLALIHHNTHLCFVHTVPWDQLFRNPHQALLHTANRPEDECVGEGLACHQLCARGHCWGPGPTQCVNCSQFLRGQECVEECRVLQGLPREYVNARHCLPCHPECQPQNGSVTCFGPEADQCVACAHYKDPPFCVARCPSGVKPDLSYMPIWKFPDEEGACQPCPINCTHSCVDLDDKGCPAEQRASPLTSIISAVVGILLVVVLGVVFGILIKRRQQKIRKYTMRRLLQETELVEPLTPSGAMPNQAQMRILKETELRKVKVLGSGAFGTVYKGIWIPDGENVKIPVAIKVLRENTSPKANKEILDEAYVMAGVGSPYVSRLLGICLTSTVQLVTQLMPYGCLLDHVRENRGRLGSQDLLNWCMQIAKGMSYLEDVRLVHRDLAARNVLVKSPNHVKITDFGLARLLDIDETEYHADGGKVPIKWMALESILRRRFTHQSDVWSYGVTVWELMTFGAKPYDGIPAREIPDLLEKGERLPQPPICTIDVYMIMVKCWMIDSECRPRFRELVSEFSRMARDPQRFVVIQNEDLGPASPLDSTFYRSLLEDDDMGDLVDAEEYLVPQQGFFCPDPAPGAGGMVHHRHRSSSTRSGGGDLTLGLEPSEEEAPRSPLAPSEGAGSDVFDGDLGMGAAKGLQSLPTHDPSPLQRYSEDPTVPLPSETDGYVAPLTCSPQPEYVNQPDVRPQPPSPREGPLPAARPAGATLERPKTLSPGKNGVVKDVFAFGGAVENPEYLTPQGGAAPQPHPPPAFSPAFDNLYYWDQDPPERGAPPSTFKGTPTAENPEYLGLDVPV
Protocol: as §1

[5] = molecular target: various enzymes (Homo sapiens, UniProt P0C1S8); conditions: compound 1 uM
Protocol: as §1

[6] = molecular target: various enzymes (Homo sapiens, UniProt P14616); conditions: compound 1 uM
Protocol: as §1

[7] = molecular target: various enzymes (Homo sapiens, UniProt P27361); conditions: compound 1 uM
Protocol: as §1

[8] = molecular target: various enzymes (Homo sapiens, UniProt P41743); conditions: compound 1 uM
Protocol: as §1

[9] = molecular target: various enzymes (Homo sapiens, UniProt P42336); conditions: compound 1 uM
Protocol: as §1

[10] = molecular target: various enzymes (Homo sapiens, UniProt P42685); conditions: compound 1 uM
Protocol: as §1

[11] = molecular target: various enzymes (Homo sapiens, UniProt P51451); conditions: compound 1 uM
Chain of various enzymes (Homo sapiens, UniProt P51451) (P51451 whole entry): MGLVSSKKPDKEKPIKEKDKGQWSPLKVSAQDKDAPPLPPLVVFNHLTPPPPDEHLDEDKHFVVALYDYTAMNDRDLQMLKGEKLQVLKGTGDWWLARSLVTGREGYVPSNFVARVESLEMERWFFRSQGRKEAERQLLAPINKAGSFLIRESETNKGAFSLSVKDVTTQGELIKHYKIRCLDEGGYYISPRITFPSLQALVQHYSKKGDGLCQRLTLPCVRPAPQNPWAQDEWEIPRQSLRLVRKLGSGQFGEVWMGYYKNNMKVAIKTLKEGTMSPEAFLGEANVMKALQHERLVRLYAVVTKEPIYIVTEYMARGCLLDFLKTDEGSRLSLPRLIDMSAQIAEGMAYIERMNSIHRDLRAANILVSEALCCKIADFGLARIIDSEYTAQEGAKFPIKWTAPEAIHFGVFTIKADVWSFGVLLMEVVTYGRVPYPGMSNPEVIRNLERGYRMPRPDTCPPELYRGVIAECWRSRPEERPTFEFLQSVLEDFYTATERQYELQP
Protocol: as §1

[12] = molecular target: various enzymes (Homo sapiens, UniProt P52564); conditions: compound 1 uM
Protocol: as §1

[13] = molecular target: various enzymes (Homo sapiens, UniProt P53350); conditions: compound 1 uM
Chain of various enzymes (Homo sapiens, UniProt P53350) (P53350 whole entry): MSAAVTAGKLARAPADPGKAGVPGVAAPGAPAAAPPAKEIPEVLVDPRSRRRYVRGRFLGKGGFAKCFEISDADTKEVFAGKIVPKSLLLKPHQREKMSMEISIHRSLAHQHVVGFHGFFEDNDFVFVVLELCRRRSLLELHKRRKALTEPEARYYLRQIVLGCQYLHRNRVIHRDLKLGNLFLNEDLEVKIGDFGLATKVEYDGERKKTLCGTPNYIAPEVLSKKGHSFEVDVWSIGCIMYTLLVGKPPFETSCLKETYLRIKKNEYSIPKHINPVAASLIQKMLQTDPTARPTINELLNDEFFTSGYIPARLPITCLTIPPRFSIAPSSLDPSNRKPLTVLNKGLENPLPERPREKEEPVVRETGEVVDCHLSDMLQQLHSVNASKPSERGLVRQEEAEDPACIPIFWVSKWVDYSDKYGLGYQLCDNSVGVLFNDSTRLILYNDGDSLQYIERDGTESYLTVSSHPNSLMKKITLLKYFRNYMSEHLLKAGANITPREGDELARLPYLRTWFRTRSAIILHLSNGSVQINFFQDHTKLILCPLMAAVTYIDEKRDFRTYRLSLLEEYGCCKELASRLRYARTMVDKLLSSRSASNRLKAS
Protocol: as §1

[14] = molecular target: various enzymes (Homo sapiens, UniProt P54753); conditions: compound 1 uM
Protocol: as §1

[15] = molecular target: various enzymes (Homo sapiens, UniProt P57059); conditions: compound 1 uM
Chain of various enzymes (Homo sapiens, UniProt P57059) (P57059 whole entry): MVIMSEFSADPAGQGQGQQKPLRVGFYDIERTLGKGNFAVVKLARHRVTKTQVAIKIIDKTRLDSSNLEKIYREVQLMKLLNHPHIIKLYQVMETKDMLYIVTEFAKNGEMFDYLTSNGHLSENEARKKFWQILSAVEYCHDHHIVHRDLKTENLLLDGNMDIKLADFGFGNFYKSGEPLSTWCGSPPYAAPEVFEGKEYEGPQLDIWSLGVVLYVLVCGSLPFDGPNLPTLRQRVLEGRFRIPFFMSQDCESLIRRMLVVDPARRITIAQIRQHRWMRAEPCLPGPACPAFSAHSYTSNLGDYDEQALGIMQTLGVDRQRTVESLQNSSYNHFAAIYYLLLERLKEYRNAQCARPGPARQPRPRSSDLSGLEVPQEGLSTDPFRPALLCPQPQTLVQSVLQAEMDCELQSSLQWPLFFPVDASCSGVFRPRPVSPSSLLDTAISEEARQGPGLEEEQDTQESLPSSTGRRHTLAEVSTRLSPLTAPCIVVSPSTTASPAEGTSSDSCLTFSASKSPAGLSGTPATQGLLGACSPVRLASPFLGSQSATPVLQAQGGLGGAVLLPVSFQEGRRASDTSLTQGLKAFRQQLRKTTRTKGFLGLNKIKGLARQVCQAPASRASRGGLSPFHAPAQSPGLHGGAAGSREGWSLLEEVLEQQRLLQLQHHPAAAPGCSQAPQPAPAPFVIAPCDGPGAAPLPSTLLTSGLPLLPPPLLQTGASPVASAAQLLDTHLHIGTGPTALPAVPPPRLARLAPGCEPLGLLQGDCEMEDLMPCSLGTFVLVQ
Protocol: as §1

[16] = molecular target: various enzymes (Homo sapiens, UniProt P78356); conditions: compound 1 uM
Chain of various enzymes (Homo sapiens, UniProt P78356) (P78356 whole entry): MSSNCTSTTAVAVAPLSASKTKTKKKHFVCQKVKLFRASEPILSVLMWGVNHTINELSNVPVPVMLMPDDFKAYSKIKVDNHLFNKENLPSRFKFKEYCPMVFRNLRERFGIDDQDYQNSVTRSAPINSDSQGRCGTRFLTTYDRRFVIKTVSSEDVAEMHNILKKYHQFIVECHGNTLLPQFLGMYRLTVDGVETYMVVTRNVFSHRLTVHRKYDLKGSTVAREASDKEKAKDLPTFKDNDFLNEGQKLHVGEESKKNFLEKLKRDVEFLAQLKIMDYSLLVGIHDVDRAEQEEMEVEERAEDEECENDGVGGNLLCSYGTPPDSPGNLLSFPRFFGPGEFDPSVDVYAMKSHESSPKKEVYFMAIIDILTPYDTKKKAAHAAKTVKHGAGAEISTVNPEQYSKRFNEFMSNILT
Protocol: as §1

[17] = molecular target: various enzymes (Homo sapiens, UniProt P78368); conditions: compound 1 uM
Chain of various enzymes (Homo sapiens, UniProt P78368) (P78368 whole entry): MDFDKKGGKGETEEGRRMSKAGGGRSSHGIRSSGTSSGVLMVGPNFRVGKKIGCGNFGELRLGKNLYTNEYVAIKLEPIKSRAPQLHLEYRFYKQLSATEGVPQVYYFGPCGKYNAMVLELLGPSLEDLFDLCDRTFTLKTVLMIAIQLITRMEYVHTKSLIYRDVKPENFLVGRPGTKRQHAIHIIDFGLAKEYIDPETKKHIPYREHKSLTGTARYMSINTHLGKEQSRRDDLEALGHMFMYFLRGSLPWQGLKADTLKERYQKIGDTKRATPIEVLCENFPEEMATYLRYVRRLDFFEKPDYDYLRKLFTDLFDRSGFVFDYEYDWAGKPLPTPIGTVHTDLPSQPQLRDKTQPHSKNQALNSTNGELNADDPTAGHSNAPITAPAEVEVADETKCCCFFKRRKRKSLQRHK
Protocol: as §1

[18] = molecular target: various enzymes (Homo sapiens, UniProt Q02763); conditions: compound 1 uM
Protocol: as §1

[19] = molecular target: various enzymes (Homo sapiens, UniProt Q02779); conditions: compound 1 uM
Chain of various enzymes (Homo sapiens, UniProt Q02779) (Q02779 whole entry): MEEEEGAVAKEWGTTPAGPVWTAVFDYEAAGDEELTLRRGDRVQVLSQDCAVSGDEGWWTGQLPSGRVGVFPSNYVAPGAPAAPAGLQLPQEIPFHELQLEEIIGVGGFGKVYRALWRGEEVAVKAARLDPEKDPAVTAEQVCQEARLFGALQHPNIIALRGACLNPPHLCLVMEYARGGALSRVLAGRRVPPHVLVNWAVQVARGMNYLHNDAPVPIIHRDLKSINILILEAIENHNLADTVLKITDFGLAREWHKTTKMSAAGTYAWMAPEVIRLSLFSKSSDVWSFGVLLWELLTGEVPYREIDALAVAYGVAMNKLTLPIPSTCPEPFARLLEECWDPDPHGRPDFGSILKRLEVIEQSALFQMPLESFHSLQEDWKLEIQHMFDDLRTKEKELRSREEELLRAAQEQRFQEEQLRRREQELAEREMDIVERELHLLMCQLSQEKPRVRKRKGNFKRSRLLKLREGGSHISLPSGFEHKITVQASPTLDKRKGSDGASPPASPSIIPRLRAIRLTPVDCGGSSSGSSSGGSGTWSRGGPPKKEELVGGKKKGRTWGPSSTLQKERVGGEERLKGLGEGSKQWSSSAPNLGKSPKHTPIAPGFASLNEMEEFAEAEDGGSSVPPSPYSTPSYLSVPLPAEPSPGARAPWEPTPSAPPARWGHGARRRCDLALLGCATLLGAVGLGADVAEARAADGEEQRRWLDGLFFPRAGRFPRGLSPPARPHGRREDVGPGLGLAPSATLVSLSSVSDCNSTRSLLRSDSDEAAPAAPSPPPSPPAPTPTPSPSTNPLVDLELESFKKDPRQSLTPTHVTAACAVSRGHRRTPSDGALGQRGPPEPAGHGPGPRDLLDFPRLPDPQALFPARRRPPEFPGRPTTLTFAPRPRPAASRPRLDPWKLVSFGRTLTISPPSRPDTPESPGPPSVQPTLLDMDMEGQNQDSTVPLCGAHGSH
Protocol: as §1

[20] = molecular target: T1, various enzymes (Homo sapiens, UniProt Q13043); conditions: compound 1 uM
T1 sequence (Q13043 1-487): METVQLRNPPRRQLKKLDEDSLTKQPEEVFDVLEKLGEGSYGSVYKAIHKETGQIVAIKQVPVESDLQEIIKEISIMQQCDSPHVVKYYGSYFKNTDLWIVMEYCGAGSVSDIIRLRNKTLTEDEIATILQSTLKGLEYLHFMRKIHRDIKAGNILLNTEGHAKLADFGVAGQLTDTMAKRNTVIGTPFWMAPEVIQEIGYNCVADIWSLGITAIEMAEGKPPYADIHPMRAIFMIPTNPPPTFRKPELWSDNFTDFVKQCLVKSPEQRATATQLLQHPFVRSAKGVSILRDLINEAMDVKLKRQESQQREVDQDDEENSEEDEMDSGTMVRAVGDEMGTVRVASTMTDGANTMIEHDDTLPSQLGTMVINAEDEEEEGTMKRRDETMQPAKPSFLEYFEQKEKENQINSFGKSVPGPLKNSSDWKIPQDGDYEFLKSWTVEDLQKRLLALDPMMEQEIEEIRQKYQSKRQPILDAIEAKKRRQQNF
Protocol: as §1

[21] = molecular target: various enzymes (Homo sapiens, UniProt Q13164); conditions: compound 1 uM
Protocol: as §1

[22] = molecular target: various enzymes (Homo sapiens, UniProt Q6XUX3); conditions: compound 1 uM
Protocol: as §1

[23] = molecular target: various enzymes (Homo sapiens, UniProt Q7L7X3); conditions: compound 1 uM
Protocol: as §1

[24] = molecular target: various enzymes (Homo sapiens, UniProt Q92772); conditions: compound 1 uM
Protocol: as §1

[25] = molecular target: various enzymes (Homo sapiens, UniProt Q96D53); conditions: compound 1 uM
Protocol: as §1

[26] = molecular target: various enzymes (Homo sapiens, UniProt Q9H4B4); conditions: compound 1 uM
Protocol: as §1

[27] = molecular target: various enzymes (Homo sapiens, UniProt Q9NSY1); conditions: compound 1 uM
Protocol: as §1

[28] = molecular target: various enzymes (Homo sapiens, UniProt Q9NYY3); conditions: compound 1 uM
Protocol: as §1

[29] = molecular target: various enzymes (Homo sapiens, UniProt Q9P2K8, S808G)
Protocol: as §1

[30] = molecular target: various enzymes (Homo sapiens, UniProt Q9UEE5); conditions: compound 1 uM
Protocol: as §1

Compound	Ambit profiling: SGK [1]	Ambit profiling: ABL1(Q252H)-nonphosphorylated [2]	Ambit profiling: ABL1(Q252H)-phosphorylated [2]	Ambit profiling: ERBB2 [4]	Ambit profiling: WEE2 [5]	Ambit profiling: INSRR [6]	Ambit profiling: ERK1 [7]	Ambit profiling: PRKCI [8]	Ambit profiling: PIK3CA [9]	Ambit profiling: FRK [10]	Ambit profiling: BLK [11]	Ambit profiling: MEK6 [12]	Ambit profiling: PLK1 [13]	Ambit profiling: EPHB3 [14]	Ambit profiling: SIK [15]	Ambit profiling: PIP5K2B [16]	Ambit profiling: CSNK1G2 [17]	Ambit profiling: TIE2 [18]	Ambit profiling: MLK2 [19]	Ambit profiling: MST1 [20]	also measured
CC(C)N1Cc2nn(C)cc2-c2cnc3[nH]cc(c3c2)-c2cn(nc2C(F)(F)F)CCCC1=O [Compound 45, (Z)-5-isopropyl-31-methyl-13-(trifluoromethyl)-11H,21H,31H-5-aza-2(3,5)-pyrrolo[2,3-b]pyridina-1(4,1),3(4,3)-dipyrazolacyclononaphan-6-one]	1.3	3.2	20	100	100	51	100	9.1	100	11	3.7	15	93	97	74	23	100	6.7	36	2.8	Ambit profiling: EGFR(T790M) ([3]; compound 1 uM): 65; Ambit profiling: ERK5 [21]: 100; Ambit profiling: RIPK5 [22]: 27; Ambit profiling: TAOK1 [23]: 8.8; Ambit profiling: CDKL2 [24]: 14; Ambit profiling: ADCK4 [25]: 3.9; Ambit profiling: PLK3 [26]: 95; Ambit profiling: BIKE [27]: 1.2; Ambit profiling: PLK2 [28]: 90; Ambit profiling: GCN2(Kin.Dom.2, S808G) ([29]; compound 1 uM): 100; Ambit profiling: DRAK1 [30]: 100
COc1c2c(nn1C)CN(C(C)C)C(=O)CCCn1cc(c(C(F)(F)F)n1)-c1c[nH]c3ncc-2cc13 [Compound 50, (Z)-5-isopropyl-35-methoxy-31-methyl-13-(trifluoromethyl)-11H,21H,31H-5-aza-2(3,5)-pyrrolo[2,3-b]pyridina-1(4,1),3(4,3)-dipyrazolacyclononaphan-6-one]	6	2.4	1.6	86	73	56	95	42	83	10	1.6	45	100	62	57	35	83	2.7	60	2.2	Ambit profiling: EGFR(T790M) [3]: 32; Ambit profiling: ERK5 [21]: 70; Ambit profiling: RIPK5 [22]: 95; Ambit profiling: TAOK1 [23]: 82; Ambit profiling: CDKL2 [24]: 20; Ambit profiling: ADCK4 [25]: 7.7; Ambit profiling: PLK3 [26]: 77; Ambit profiling: BIKE [27]: 10; Ambit profiling: PLK2 [28]: 95; Ambit profiling: GCN2(Kin.Dom.2, S808G) [29]: 100; Ambit profiling: DRAK1 [30]: 100

Source: patent US12157741B2, “Macrocyclic inhibitors of DYRK1A” (DANA-FARBER CANCER INSTITUTE, INC., priority 2018, dated 2024)
